Paper PMC4096627 (Bioorganic & medicinal chemistry, 2014)
Structures can show the parent of a compound that is named as a salt.

Key:
[1] = molecular target: T1, Dopamine Receptor D4 (Homo sapiens, UniProt P21917); assay: NIMH-PDSP binding affinity at dopamine receptor subtype D4; conditions: for D2/D4: ratio of Ki D2 to Ki D4
T1 sequence (P21917 1-419): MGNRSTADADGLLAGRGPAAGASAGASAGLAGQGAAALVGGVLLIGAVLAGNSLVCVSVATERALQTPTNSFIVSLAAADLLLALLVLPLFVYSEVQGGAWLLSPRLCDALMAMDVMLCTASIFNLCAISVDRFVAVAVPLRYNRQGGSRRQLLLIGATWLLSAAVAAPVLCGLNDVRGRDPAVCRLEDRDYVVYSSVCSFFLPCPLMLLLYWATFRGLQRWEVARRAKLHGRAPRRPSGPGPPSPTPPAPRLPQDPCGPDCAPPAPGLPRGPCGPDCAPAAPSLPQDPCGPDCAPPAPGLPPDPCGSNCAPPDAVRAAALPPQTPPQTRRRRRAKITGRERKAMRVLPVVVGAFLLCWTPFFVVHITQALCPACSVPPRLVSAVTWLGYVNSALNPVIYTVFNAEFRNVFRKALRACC

[2] = molecular target: Dopamine Receptor D5 (Homo sapiens, UniProt P21918); assay: NIMH-PDSP binding affinity at dopamine receptor subtype D5; conditions: for primary assay inhibition at D5: primary assay threshold
[3] = molecular target: T1, Dopamine Receptor D4; conditions: compounds 1-7, D2-like data; ref Previous publications from our lab; cited from earlier work
[4] = molecular target: Dopamine Receptor D1 (Homo sapiens, UniProt P21728); assay: NIMH-PDSP binding affinity at dopamine receptor subtype D1; conditions: for primary assay inhibition at D1: primary assay threshold
[5] = molecular target: Dopamine Receptor D2 (Homo sapiens, UniProt P14416); assay: NIMH-PDSP binding affinity at dopamine receptor subtype D2; conditions: for primary assay inhibition at D2: primary assay threshold
[6] = molecular target: Dopamine Receptor D3 (Homo sapiens, UniProt P35462); assay: NIMH-PDSP binding affinity at dopamine receptor subtype D3
Sequence of Dopamine Receptor D3 (P35462 whole entry): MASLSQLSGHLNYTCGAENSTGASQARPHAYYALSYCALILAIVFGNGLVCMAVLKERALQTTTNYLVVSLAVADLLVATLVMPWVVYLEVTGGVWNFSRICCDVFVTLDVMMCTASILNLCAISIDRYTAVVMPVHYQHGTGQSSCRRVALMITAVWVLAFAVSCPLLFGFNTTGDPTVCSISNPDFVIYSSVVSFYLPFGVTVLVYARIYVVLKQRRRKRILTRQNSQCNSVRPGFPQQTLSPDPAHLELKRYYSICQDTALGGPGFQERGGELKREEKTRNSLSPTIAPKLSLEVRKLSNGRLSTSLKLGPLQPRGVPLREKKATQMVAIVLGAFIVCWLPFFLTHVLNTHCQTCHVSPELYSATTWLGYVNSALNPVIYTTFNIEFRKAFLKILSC

Sequence of Dopamine Receptor D1 (P21728 whole entry): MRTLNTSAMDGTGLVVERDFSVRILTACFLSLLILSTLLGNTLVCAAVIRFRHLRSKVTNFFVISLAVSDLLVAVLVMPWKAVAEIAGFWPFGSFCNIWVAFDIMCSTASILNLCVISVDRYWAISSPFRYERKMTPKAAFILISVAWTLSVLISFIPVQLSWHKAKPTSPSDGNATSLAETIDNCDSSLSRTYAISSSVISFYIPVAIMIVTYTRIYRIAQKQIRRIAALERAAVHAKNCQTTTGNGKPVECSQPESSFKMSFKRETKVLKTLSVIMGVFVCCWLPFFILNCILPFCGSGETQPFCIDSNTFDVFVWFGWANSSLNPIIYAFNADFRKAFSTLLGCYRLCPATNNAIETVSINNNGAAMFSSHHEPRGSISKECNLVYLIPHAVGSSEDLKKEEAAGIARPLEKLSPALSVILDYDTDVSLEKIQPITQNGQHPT
Sequence of Dopamine Receptor D2 (P14416 whole entry): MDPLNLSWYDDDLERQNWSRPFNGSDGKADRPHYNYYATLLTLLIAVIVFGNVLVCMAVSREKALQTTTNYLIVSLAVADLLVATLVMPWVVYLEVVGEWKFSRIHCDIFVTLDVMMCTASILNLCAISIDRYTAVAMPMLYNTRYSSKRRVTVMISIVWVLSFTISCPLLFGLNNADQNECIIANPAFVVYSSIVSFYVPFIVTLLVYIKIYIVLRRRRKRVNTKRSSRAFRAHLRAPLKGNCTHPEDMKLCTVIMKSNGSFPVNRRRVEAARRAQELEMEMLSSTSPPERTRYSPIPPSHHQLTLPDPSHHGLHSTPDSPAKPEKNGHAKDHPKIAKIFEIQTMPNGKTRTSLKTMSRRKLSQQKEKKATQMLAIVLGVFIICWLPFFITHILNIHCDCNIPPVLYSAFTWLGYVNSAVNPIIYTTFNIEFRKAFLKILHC
Sequence of Dopamine Receptor D5 (P21918 whole entry): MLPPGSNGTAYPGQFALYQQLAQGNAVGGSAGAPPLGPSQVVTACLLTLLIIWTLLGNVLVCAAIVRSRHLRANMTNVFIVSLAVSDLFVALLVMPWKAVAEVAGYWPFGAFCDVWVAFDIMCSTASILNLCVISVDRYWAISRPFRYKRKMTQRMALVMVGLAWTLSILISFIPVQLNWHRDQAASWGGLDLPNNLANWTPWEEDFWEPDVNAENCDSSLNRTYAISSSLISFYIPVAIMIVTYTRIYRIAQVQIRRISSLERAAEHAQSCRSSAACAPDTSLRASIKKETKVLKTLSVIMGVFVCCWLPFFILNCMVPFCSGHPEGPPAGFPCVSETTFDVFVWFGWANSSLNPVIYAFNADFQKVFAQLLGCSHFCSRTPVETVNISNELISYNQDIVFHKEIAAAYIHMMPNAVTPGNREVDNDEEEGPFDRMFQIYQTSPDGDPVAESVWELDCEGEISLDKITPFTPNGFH

D2/D4 [1]	Structure (SMILES)	primary assay inhibition at D5 [2]	primary assay inhibition at D1 [4]	further results
14.5	O=C(CCCN1CCN(c2ccc(Cl)cc2)CC1)c1ccc(F)cc1 [Compound 1]	–	–	D3/D4 ([1]; ratio of Ki D3 to Ki D4): 23.1
–	[O-][S+](CCCN1CCN(c2ccc(Cl)cc2)CC1)c1ccc(F)cc1 (centres unmarked) [Compound 2]	MT (Missed primary assay threshold of 50% inhibition)	MT (Missed primary assay threshold of 50% inhibition)	pKi ±SEM at the Dopamine Receptor Subtype D4 [3]: 7.89±0.05
–	Clc1ccc(N2CCN(CCCOc3ccccc3)CC2)cc1 [Compound 6]	–	–	pKi ±SEM at the Dopamine Receptor Subtype D4 [3]: 8.26±0.03
–	O=C1c2ccc(F)cc2CC1CCN1CCN(c2ccc(Cl)cc2)CC1 (centres unmarked) [Compound 8, 2-(2-(4-(4-Chlorophenyl)piperazin-1-yl)ethyl)-5-fluoro-indan-1-one hydrochloride]	MT (Missed primary assay threshold of 50% inhibition)	–	–
>277	O=C1c2ccccc2CC1CCN1CCN(c2ccc(Cl)cc2)CC1 (centres unmarked) [Compound 9, 2-{2-[4-(4-Chloro-phenyl)-piperazin-1-yl]-ethyl}-indan-1-one tosylate]	MT (Missed primary assay threshold of 50% inhibition)	–	–
–	Fc1ccc2c(c1)CC(CCN1CCN(c3ccc(Cl)cc3)CC1)C2 (centres unmarked) [Compound 10, 1-(4-Chlorophenyl)-4-(2-(5-fluoro-2,3-dihydro-1H-inden-2-yl)ethyl)piperazine dihydrochloride]	MT (Missed primary assay threshold of 50% inhibition)	–	–
–	Cc1ccc(N2CCN(CCCOc3ccc(F)cc3)CC2)nc1 [Compound 15a, 1-(3-(4-Fluorophenoxy)propyl)-4-(5-methylpyridin-2-yl)piperazine]	–	–	Ki ([1]; pKi ±SEM at the Dopamine Receptor Subtype D4): 1.1 nM
–	Cc1ccc(N2CCN(CCCSc3ccc(F)cc3)CC2)nc1 [Compound 15b, 1-(3-((4-Fluorophenyl)thio)propyl)-4-(5-methylpyridin-2-yl)piperazine]	–	–	pKi ±SEM at the Dopamine Receptor Subtype D5 [2]: 5.7±0.1; pKi ±SEM at the Dopamine Receptor Subtype D2 [5]: 6±0.1; pKi ±SEM at the Dopamine Receptor Subtype D3 [6]: 6.8±0.1
–	Fc1ccc(OCCCN2CCN(c3ncccn3)CC2)cc1 [Compound 16a]	MT (Missed primary assay threshold of 50% inhibition)	–	–
–	Clc1ccc(N2CCN(CCc3cc4ccccc4o3)CC2)cc1 [Compound 23, 1-(2-(Benzofuran-2-yl)ethyl)-4-(4-chlorophenyl)piperazine]	MT (Missed primary assay threshold of 50% inhibition)	MT (Missed primary assay threshold of 50% inhibition)	primary assay inhibition at D2 [5]: MT (Missed primary assay threshold of 50% inhibition); primary assay inhibition at D3 ([6]; primary assay threshold): MT (Missed primary assay threshold of 50% inhibition)
–	Clc1ccc(N2CCN(CCCc3cc4ccccc4o3)CC2)cc1 [Compound 24, 1-(3-(Benzofuran-2-yl)propyl)-4-(4-chlorophenyl)piperazine]	MT (Missed primary assay threshold of 50% inhibition)	–	–
>4.2-	Clc1ccc(N2CC3CC2CN3CCCc2cc3ccccc3o2)cc1 (centres unmarked) [Compound 25, 2-(3-(Benzofuran-2-yl)propyl)-5-(4-chlorophenyl)-2,5-diazabicyclo[2.2.1]heptane]	MT (Missed primary assay threshold of 50% inhibition)	MT (Missed primary assay threshold of 50% inhibition)	primary assay inhibition at D2 [5]: MT (Missed primary assay threshold of 50% inhibition)
–	c1cnc(N2CCN(CCCCc3nc4ccccc4s3)CC2)nc1 [Compound 27]	MT (Missed primary assay threshold of 50% inhibition)	MT (Missed primary assay threshold of 50% inhibition)	–
–	c1cnc(N2CCN(CCCc3nc4ccccc4s3)CC2)nc1 [Compound 28, 2-(3-(4-(Pyrimidin-2-yl)piperazin-1-yl)propyl)benzo[d]thiazole trihydrobromide]	MT (Missed primary assay threshold of 50% inhibition)	MT (Missed primary assay threshold of 50% inhibition)	inhibition of the appropriate radioligand at D5 ([2]; other DA subtypes): less than 50%; inhibition of the appropriate radioligand at D1 ([4]; other DA subtypes): less than 50%

Structure (SMILES)	D2/D4 [1]	primary assay inhibition at D5 [2]	primary assay inhibition at D1 [4]	further results
Clc1ccc(N2CCN(CCCCc3nc4ccccc4o3)CC2)cc1 [Compound 20, 2-(4-(4-(4-Chlorophenyl)piperazin-1-yl)butyl)benzo[d]oxazole]	>327	MT (Missed primary assay threshold of 50% inhibition)	MT (Missed primary assay threshold of 50% inhibition)	primary assay inhibition at D2 [5]: MT (Missed primary assay threshold of 50% inhibition)
Clc1ccc(N2CCN(CCc3nc4ccccc4o3)CC2)cc1 [Compound 22, 2-(2-(4-(4-Chlorophenyl)piperazin-1-yl)ethyl)benzo[d]oxazole]	>7.1	MT (Missed primary assay threshold of 50% inhibition)	MT (Missed primary assay threshold of 50% inhibition)	primary assay inhibition at D2 [5]: MT (Missed primary assay threshold of 50% inhibition)
